Measurements reported in patent US20200383969A1, “RIMEGEPANT FOR CGRP RELATED DISORDERS” (Biohaven Pharmaceutical Holding Company Ltd., priority 2018, published 2020).

Tests used:
[1] = Study 302 (BHV3000-302), Phase 3, rimegepant 75 mg tablet vs placebo, acute treatment of migraine; type: in vivo, human
Source text: Clinical Trial—BHV3000-302 : Phase 3: Double-Blind, Randomized, Placebo-Controlled, Safety and Efficacy Trial of BHV-3000 (Rimegepant) for the Acute Treatment of Migraine (ClinicalTrials.gov Identifier: NCT03237845) • Study Type: Interventional (Clinical Trial) • Actual Enrollment: 1503 participants • Allocation: Randomized • Intervention Model: Parallel Assignment • Intervention Model Description: Double-blind to Sponsor, Investigator and Subject • Masking: Triple (Participant, Care Provider, Investigator) • Masking Description: Double-blind to Sponsor, Investigator and Subject • Primary Purpose: Treatment • Official Title: BHV3000-302: Phase 3: Double-Blind, Randomized, Placebo-Controlled, Safety and Efficacy Trial of BHV-3000 (Rimegepant) for the Acute Treatment of Migraine • Actual Study Start Date : Jul. 26, 2017 • Primary Completion Date : Jan. 25, 2018 • Study Completion Date : Jan. 31, 2018 • 1. Pain Freedom of rimegepant (75 mg tablet) compared with placebo in the acute treatment of migraine will be measured using the number of evaluable subjects that report no pain at 2 hours post-dose. [Time Frame: Two hours post dose] • Pain will be measured on a 4 point Likert scale (0=none, 1=mild, 2=moderate, 3=severe) • 2. Freedom from the most bothersome symptom (MBS) of rimegepant (75 mg tablet) compared with placebo will be measured using the number of evaluable subjects that report the absence of their MBS at 2 hours post-dose. [Time Frame: Two hours post dose] • The MBS (nausea, phonophobia or photophobia) will measured using a binary scale (0=absent, 1=present). • 1. […] [Time Frame: 2 hours -24 hours post-dose] • Sustained Pain Freedom as measured by a 4 point numeric rating scale (None, Mild, Moderate, Severe) • 2. Rimegepant (75 mg tablet) compared to placebo by tabulating the number of subjects that report the absence of photophobia at 2 hours post-dose in the subset of subjects that reported the presence of photophobia at headache baseline. [Time Frame: 2 hours post-dose] • Freedom from Photophobia • 3. Rimegepant (75 mg tablet) compared to placebo by tabulating the number of subjects that report the absence of phonophobia at 2 hours post-dose in the subset of subjects that reported the presence of phonophobia at headache baseline. [Time Frame: 2 hours post-dose] • Freedom from Phonophobia • 4. To measure rimegepant (75 mg tablet) compared to placebo on Pain Relief, at 2 hours post-dose, that report a pain level of moderate or severe at baseline and then report a pain level of none or mild. [Time Frame: 2 hours post-dose] • Pain Relief as measured by a 4 point numeric rating scale (None, Mild, Moderate, Severe) • 5. Freedom from Nausea will by tabulating the number of subjects that report the absence of nausea at 2 hours post-dose in the subset of subjects that reported the presence of nausea at headache baseline. [Time Frame: 2 hours post-dose] • Freedom from Nausea • 6. To measure rimegepant (75 mg tablet) compared to placebo on the probability of requiring rescue medication will be assessed using the number of subjects that take rescue medication within […] administration of study medication (BHV3000 or placebo). [Time Frame: up to 24 hours post-dose] • Requiring Rescue Medication • 7. […] [Time Frame: 2 hours-48 hours post-dose] • Sustained Pain Freedom as measured by a 4 point numeric rating scale (None, Mild, Moderate, Severe) • 8. […] [Time Frame: 2 hours-24 hours post-dose] • Sustained Pain Relief as measured by a 4 point numeric rating scale (None, Mild, Moderate, Severe) • 9. […] [Time Frame: 2 hours-48 hours post-dose] • Sustained Pain Relief as measured by a 4 point numeric rating scale (None, Mild, Moderate, Severe) • 10. Rimegepant (75 mg tablet) relative to placebo on the proportion of subjects able to function normally, at 2 hours, using the number of subjects that self-report as “normal” on the functional disability scale. [Time Frame: 2 hours post-dose] • Functional Disability Score • 11. […]

[2] = Pooled adverse event and liver function test data, Studies 301, 302 and 303; type: in vivo, human
[3] = pooled Studies 301, 302, 303, n = 1,771

## N[C@@H]1c2cccnc2[C@H](OC(=O)N2CCC(n3c(=O)[nH]c4ncccc43)CC2)CC[C@H]1c1cccc(F)c1F [Rimegepant, [(5S,6S,9R)-5-amino-6-(2,3-difluorophenyl)-6,7,8,9-tetrahydro-5H-cyclohepta[b]pyridin-9-yl] 4-(2-oxo-3H-imidazo[4,5-b]pyridin-1-yl)piperidine-1-carboxylate]
[1]
  SAEs related to the study drug: No SAEs
[1]; 75 mg tablet
  AE nausea, incidence: 1.8%
  AE nausea, n/N: 10/543
  AE urinary tract infection, incidence: 1.5%
  AE urinary tract infection, n/N: 8/543
  Bilirubin elevations greater than 2 times ULN: no bilirubin elevations
  Serum ALT or AST > ULN, n/N: 13/543
  Serum ALT or AST > ULN, subjects: 2.4%
  Transaminase level greater than 3 times ULN: No subject
[1]; P<0.0001
  Normal function at 2 hours (functional disability) vs placebo: greater proportion
[1]; back pain
  Serious AEs, number of subjects: 1
[1]; single dose, no rescue medication, P<0.0001
  Sustained pain relief from 2 through 48 hours postdose vs placebo: superiority versus placebo
[1]; single dose, no rescue medication, P=0.0181
  Sustained pain freedom from 2 through 48 hours postdose vs placebo: superiority versus placebo
[2]; across Studies 301, 302 and 303
  Bilirubin elevations > 2 × ULN: no patients experienced elevations
[2]; pooled Studies 301, 302, 303, AST elevation, not drug-related per investigator
  ALT or AST >5 × ULN, patients: (0.06%)^2
[2]; [3]
  ALT or AST >3 × ULN, patients: (0.1%)
  ALT or AST >ULN, patients: (2.7%)
